Several values for one entry are separate records, joined by “and”; a condition that tells them apart may be missing. Equal values may be shown once.
Experiments:
Assay type in all cases: in vivo
Fusarium proliferatum = assay: Treatment of wounded bananas inoculated with Fusarium proliferatum; conditions: 20° C.
Experimental: Four organic, unripe (green) bananas were used per treatment. The peel of each banana was wounded thrice using a cork borer according to the method described by de Lapeyre de Bellaire and Dubois (1987). Subsequently, each wound was inoculated with 15 μl of a Fusarium proliferatum suspension containing 1×10^5 of spores/ml. […] In addition, the antifungal compositions comprised 1.00% (w/w) methylhydroxyethylcellulose (MHEC), 0.40% (w/w) xanthan gum, 0.20% (w/w) anti-foaming agent, 0.30% (w/w) citric acid, 0.39% (w/w) lactic acid and 0.11% (w/w) potassium sorbate. The pH of the compositions was 4. […] The treated, unripe bananas were incubated in a closed box in the dark at 20° C. and a relative air humidity of 95%, which was obtained in the presence of a saturated Na2HPO4 aqueous solution. During the first 10 days of incubation, a ripe (yellow) banana was included in the closed box to elevate the ethylene gas level and thus induce ripening of the treated, unripe bananas.
(§1) The expected antifungal activity (E in %) of the combined antifungal composition comprising both active ingredients was calculated according to the Colby equation (Colby, 1967): E=X+Y−[(X·Y)/100] wherein X and Y are the observed antifungal activities (in %) of the individual active ingredients X and Y, respectively. If the observed antifungal activity (O in %) of the combination exceeds the expected antifungal activity (E in %) of the combination and the synergy factor O/E is thus >1.0, the combined application of the active ingredients leads to a synergistic antifungal effect.
The degree of mould growth on the banana wounds was assessed according to the two methods described in Example 3.

Penicillium italicum = assay: Treatment of wounded mandarins inoculated with Penicillium italicum; conditions: 20° C., 250 ppm natamycin
Experimental: Ten fresh, organic mandarins were used per treatment. The peel of each mandarin was wounded once using a cork borer according to the method described by de Lapeyre de Bellaire and Dubois (1987). Subsequently, each wound was inoculated with 10 μl of a Penicillium italicum suspension containing 1×10^4 of spores/ml. […] The pH of the compositions was 4. A composition without natamycin or fluoxastrobin was used as control.
as §1, with “The treated mandarins were incubated in a closed box in the dark at 20° C. and assessed on mould growth after 10, 15, 19, 22 and 27 days of incubation. The antifungal activity (in %) of the individual active ingredients was determined by calculating the reduction in mould growth observed on the mandarins treated with the antifungal composition in comparison to the mould growth on the mandarins treated with the control composition. The” for “The”
A composition without natamycin or trifloxystrobin was used as control. The antifungal activity (in %) of the individual and combined active ingredients on mandarins was assessed after 8, 10 and 19 days of incubation according to the method described in Example 9.

Botrytis cinerea = assay: Treatment of wounded strawberries inoculated with Botrytis cinerea; conditions: 20° C.
Experimental: Twelve fresh, organic strawberries were used per treatment. Each strawberry was wounded with a 0.5 mm long cut and each wound was inoculated with 10 μl of a Botrytis cinerea suspension containing 1×10^5 of spores/ml. […] The antifungal composition also comprised 1.00% (w/w) methylhydroxyethylcellulose (MHEC), 0.40% (w/w) xanthan gum, 0.20% (w/w) anti-foaming agent, 0.30% (w/w) citric acid, 0.39% (w/w) lactic acid and 0.11% (w/w) potassium sorbate. The pH of the compositions was 4.
as §1, with “The treated strawberries were incubated in a closed box in the dark at 20° C. and assessed on mould growth after 4, 5, 7 and 8 days of incubation. […] The” for “The”, “effect. […]” for “effect.”

[1] = 21 days, 500 ppm natamycin, 1000 ppm fluoxastrobin or both
[2] = 27 days, 250 ppm natamycin, 500 ppm fluoxastrobin or both
[3] = 27 days, 500 ppm natamycin, 1000 ppm fluoxastrobin or both
[4] = 10 days, 500 ppm fluoxastrobin or both
[5] = 15 days, 500 ppm fluoxastrobin or both
[6] = 19 days, 500 ppm fluoxastrobin or both
[7] = 22 days, 500 ppm fluoxastrobin or both
[8] = 27 days, 500 ppm fluoxastrobin or both
[9] = 27 days, 500 ppm natamycin, 1000 ppm trifloxystrobin or both
[10] = 3 days, 50 ppm natamycin, 250 ppm trifloxystrobin or both
[11] = 5 days, 50 ppm natamycin, 250 ppm trifloxystrobin or both
[12] = 5 days, 250 ppm natamycin, 500 ppm trifloxystrobin or both
[13] = 5 days, 500 ppm natamycin, 1000 ppm trifloxystrobin or both
[14] = 7 days, 250 ppm natamycin, 500 ppm trifloxystrobin or both
[15] = 7 days, 500 ppm natamycin, 1000 ppm trifloxystrobin or both
[16] = 8 days, 250 ppm natamycin, 500 ppm trifloxystrobin or both
[17] = 8 days, 500 ppm natamycin, 1000 ppm trifloxystrobin or both
[18] = 9 days, 250 ppm natamycin, 500 ppm trifloxystrobin or both
[19] = 8 days, 400 ppm trifloxystrobin or both
[20] = 10 days, 400 ppm trifloxystrobin or both
[21] = 19 days, 400 ppm trifloxystrobin or both

| Compound | Number of moulded wounds/total number of 12 wounds (Fusarium proliferatum; [1]) | Observed antifungal activity O (%) (Fusarium proliferatum; [1]) | Observed antifungal activity O (%) (Fusarium proliferatum; [2]) | Number of moulded wounds/total number of 12 wounds (Fusarium proliferatum; [3]) | Observed antifungal activity O (%) (Fusarium proliferatum; [3]) | Observed antifungal activity O (%) (Penicillium italicum; [4]) | Observed antifungal activity O (%) (Penicillium italicum; [5]) | Observed antifungal activity O (%) (Penicillium italicum; [6]) | Observed antifungal activity O (%) (Penicillium italicum; [7]) | Observed antifungal activity O (%) (Penicillium italicum; [8]) | Number of moulded wounds/total number of 12 wounds (Fusarium proliferatum; [9]) | Observed antifungal activity O (%) (Fusarium proliferatum; [9]) | Observed antifungal activity O (%) (Botrytis cinerea; [10]) | Observed antifungal activity O (%) (Botrytis cinerea; [11]) | Number of moulded strawberries/total number of 12 strawberries (Botrytis cinerea; [12]) | Number of moulded strawberries/total number of 12 strawberries (Botrytis cinerea; [13]) | Observed antifungal activity O (%) (Botrytis cinerea; [13]) | Observed antifungal activity O (%) (Botrytis cinerea; [14]) | Observed antifungal activity O (%) (Botrytis cinerea; [15]) | Observed antifungal activity O (%) (Botrytis cinerea; [16]) | other results |
| --- | --- | --- | --- | --- | --- | --- | --- | --- | --- | --- | --- | --- | --- | --- | --- | --- | --- | --- | --- | --- | --- |
| CO/N=C(/C1=NOCCO1)c1ccccc1Oc1ncnc(Oc2ccccc2Cl)c1F [Fluoxastrobin, fluoxastrobin] | 10 and 10/12 | 42% | 31% | 12 and 12/12 | 7% | 28% | 24% | 6% | 4% | 0% |  |  |  |  |  |  |  |  |  |  |  |
| CON=C(C(=O)OC)c1ccccc1CON=C(C)c1cccc(C(F)(F)F)c1 [Trifloxystrobin, trifloxystrobin] |  |  |  |  |  |  |  |  |  |  | 10 and 10/12 | 75% | 50% | 7% | 12 and 12/12 | 12 and 12/12 | 0% | 0% | 6% | 0% | Observed antifungal activity O (%) (Botrytis cinerea; [17]): 6%; Observed antifungal activity O (%) (Botrytis cinerea; [18]): 0%; Observed antifungal activity O (%) (Penicillium italicum; [19]): 61%; Observed antifungal activity O (%) (Penicillium italicum; [20]): 42%; Observed antifungal activity O (%) (Penicillium italicum; [21]): 0% |
| natamycin | 6 and 6/12 | 78% | 4% | 12 and 12/12 | 63% | 54% | 19% | 5% | 5% | 5% | 12 and 12/12 | 63% | 64% | 17% | 12 and 12/12 | 12 and 12/12 | 31% | 10% | 13% | 2% | Observed antifungal activity O (%) (Botrytis cinerea; [17]): 0%; Observed antifungal activity O (%) (Botrytis cinerea; [18]): 0%; Observed antifungal activity O (%) (Penicillium italicum; [19]): 83%; Observed antifungal activity O (%) (Penicillium italicum; [20]): 54%; Observed antifungal activity O (%) (Penicillium italicum; [21]): 5% |
